Source: a melting point compilation (Tetko et al.; mined from patent text by program, amines drawn as free bases though some values may be those of a salt)

| SMILES | melting point |
| --- | --- |
| O=C(C=Cc1ccc(CNC2CC2)cc1)Nc1ccc(-c2ccc(Cl)cc2)cc1 | 222 to 223 °C |
| Cc1cc(NC(=O)CC(C)(C)C)c(C)c2c1OC(C)(C)C2c1ccc(C(C)C)cc1 (stereo not drawn) | 118 to 119 °C |
| CC(=O)c1ccc(NS(C)(=O)=O)c(Oc2ccc(Cl)cc2Cl)c1 | 119 to 121 °C |
| CC(=O)c1c(C)c2cnc(N)nc2n(C2CCCC2)c1=O | 182 to 186 °C |
| S=C(NN=Cc1cccc(-c2ccc(Cl)cc2Cl)n1)NN1CCCC1 | 155 to 156 °C |
| ON=C1c2ncc(Cl)cc2C=CC1Cl (stereo not drawn) | 202 °C |
| COC(=O)c1sc(C(=O)OC)c(OC)c1C | 61 to 64 °C |
| CC1(C)NC(=O)c2ccccc2N1CCCN1CCC(C(=O)c2ccc(F)cc2)CC1 | 186 °C |
| CNC(=O)c1ccc(F)c2c1CC(N(CCc1c[nH]c3ccc(F)cc13)C1CCC1)CO2 (stereo not drawn) | 131 °C |
| Cc1cc(=O)c2ccc(OCCCN3CCC(NC(=O)c4ccccc4[N+](=O)[O-])CC3)cc2o1 | 185 to 187 °C |
| CC(C)(C)OC(=O)c1ccc(C=Cc2cnc3nc(N)nc(N)c3c2)cc1 | > 350 °C |
| N#Cc1ccc(NC2=C(Cl)C(=O)c3ccccc3C2=O)cc1 | 188 to 189 °C |
| Cc1c(O)cc(O)c(C)c1C(=O)OCC(Cl)(Cl)Cl | 132 to 133 °C |
| CN1C(=O)CN(c2ccccc2)C1=S | 112 °C |
| Cc1ccc(-n2c(-c3cc(-c4ccc(S(C)(=O)=O)cc4)c(N4CCOCC4)s3)nc3ccccc3c2=O)cc1 | 265 to 268 °C |
| COc1cc(C(=O)N2CCN(C(=O)c3cc(OC)c(OC)c(OC)c3)C(COC(=O)N3CCCCC3)C2)cc(OC)c1OC (stereo not drawn) | 147 °C |
| CC(=O)NCC1CC1c1cccn2nc(C)nc12 (stereo not drawn) | 116 to 118 °C |
| COC(=O)c1cc([N+](=O)[O-])c(C(F)(F)F)cc1NC(C)=O | 75 to 80 °C |
| COC1(C)CCc2ccc(O)cc2O1 (stereo not drawn) | 107 to 108 °C |
| Cc1ncc2cc(Cl)nc(Cl)n12 | 134 to 135 °C |
| NC(=O)C(c1ccc(C(=O)O)cc1)C(CCc1ccccc1)c1ccccc1N1CCCCC1 (stereo not drawn) | 167 to 170 °C |

| SMILES | melting point |
| --- | --- |
| OCCCCNC1CCCCC1 | 48 to 50 °C |
| ON=C(c1ccccc1OCc1ccc(Cl)cc1)n1ccnc1 | 196 to 197 °C |
| CC(C)NC(=O)c1ccc(N2CCC(N3C(=O)OCc4ccccc43)CC2)c(S(C)(=O)=O)c1 | 240 to 242 °C |
| CCOC(=O)c1nc(SC)nc(OC)c1OCc1ccccc1 | 48 to 49 °C |
| COc1ccc(C=Cc2nnc(C(F)(F)F)o2)cc1 | 117 to 118 °C |
| COC(=O)c1ccc(Cc2cn(C(C)C)c3ccc(C=CCC(=O)N(C)C)cc23)c(OC)c1 | 118 to 120 °C |
| N#Cc1ccc2c(c1)Sc1ccccc1CC2=O | 166 to 170 °C |
| N#Cc1cscc1Nc1c(Cl)cccc1Cl | 105 to 108 °C |
| O=C1CN(c2ccc(I)cc2)S(=O)(=O)N1 | 191 to 193 °C |
| O=C(CC1CN2C(=O)CC2O1)OC(c1ccccc1)c1ccccc1 (stereo not drawn) | 64.1 to 64.9 °C |
| CONC(=O)Cc1ccccc1Nc1c(Cl)cccc1Cl | 177 to 178 °C |
| Cc1cccc(C)c1N(CCCC(=O)O)C(=O)CCCN(C(=O)c1ccc(Cl)cc1)c1c(C)cccc1C | 129 to 131 °C |
| c1ccc(C2=N[C@@H](CCP(c3ccccc3)c3ccccc3)CO2)cc1 | 52.5 to 54 °C |
| CCCc1c(OCCCc2ccc3cc(OC)c(OC)cc3c2)ccc(C(=O)O)c1O | 165 to 168 °C |
| CCCc1nn(-c2ccc(C(F)(F)F)cn2)cc1CCCOc1c(C#N)cccc1CC(=O)O | 146 to 147 °C |
| CCCCC(O)CNCCCCCCCCCCNCC(O)CCCC (stereo not drawn) | 127 to 137 °C |
| CC1(c2ccccc2)C(=O)Nc2cc(Br)cc(Br)c2C1=O (stereo not drawn) | 256 to 257 °C |
| CCCn1nc(C(C)C)c(C(=O)OCOC(C)=O)c1Cc1ccc(-c2ccccc2-c2nnn[nH]2)cc1 | 58 to 63 °C |
| CC(=NO)C(=O)c1ccccc1OCc1ccccc1 | 78 to 80 °C |
| CCCc1cc(C(=O)NC(C)(C)C)no1 | 34 to 37 °C |
| COc1ccc(S(=O)(=O)Nc2cccc(Cl)c2/C=C/c2ccncc2)cc1 | 188 to 190 °C |

| SMILES | melting point |
| --- | --- |
| O=C(O)C1Cc2cc3c(=O)c4c(F)cccc4oc3c(Cl)c2O1 (stereo not drawn) | 300 °C |
| O=C(c1cc2cc3oc(=O)[nH]c3cc2o1)N1CCC(Cc2ccccc2)CC1 | 205 to 210 °C |
| O=C(NCc1ccc(Cl)cc1)c1cnc2c(C(F)(F)F)cc(CCCO)cc2c1O | 249 to 250 °C |
| ICc1ccc2c(c1)OCO2 | 51 °C |
| CCOc1ccc(Nc2cc(C)nc3cn[nH]c23)cc1 | 217 °C |
| CS(=O)(=O)c1ccc(-c2cc(COCCO)nn2CC2CCCCC2)cc1 | 73 to 75 °C |
| CC1(C)CC(CNS(=O)(=O)c2ccc(Cl)cc2)(Cc2ccc(CC(=O)O)cc2)C1 | 140 to 142 °C |
| OCc1cc2c3n(ccc-2n1)CC(Br)=N3 | 113 to 115 °C |
| CCO/N=C(/CC)c1ccc(Cl)c2nc3n(c12)CCCN3c1ccc(Cl)cc1Cl | 140 to 141 °C |
| NC1CCCn2c1nc(-c1ccncc1)cc2=O (racemic) | 144 to 146 °C |
| CC(=O)Nc1ccc(Oc2c(NCc3ccco3)cc(C(=O)O)cc2S(=O)(=O)NC(C)=O)cc1 | 250 °C |
| COc1c(C2CC2c2ccc(NS(C)(=O)=O)cc2)cc(N2CCC(=O)NC2=O)cc1C(C)(C)C (stereo not drawn) | 265 to 266 °C |
| CN(C)C(=O)C(C)(C)CCCCC(=O)CCCCC(C)(C)C(=O)O | 91.5 to 93.5 °C |
| Cc1ccc(NC(=O)Cc2ccccc2)cc1 | 119 to 120 °C |
| CCC1(Cc2ccc(O)cc2)NC(=O)NC1=O (stereo not drawn) | 236 to 238 °C |
| O=C(O)C1=Cc2cc(-c3cccs3)ccc2OC1C(F)(F)F (stereo not drawn) | 209 to 212 °C |
| Oc1cc2c(cc1-c1nc3cc(-c4ccccc4)ccc3o1)oc1ccccc12 | 293 to 295 °C |
| CCC[C@H]1CC[C@H](c2ccc(-c3ccccc3)c(F)c2)CC1 | 96.5 to 97.3 °C |
| Cc1ccc(NC(=O)c2ccc(O)c(N)c2)cc1C | 220 to 223 °C |
| Cc1ncc(Cl)c(C(=O)Nc2ccn3cc(-c4ccccc4)nc3n2)n1 | > 250 °C |

More lines, now with the values ahead:

| melting point | SMILES |
| --- | --- |
| 104 to 106 °C | CC(=O)Oc1ccc(C2CCC(=O)CC2)cc1 |
| 175 °C | O=C(NCC(O)(Cn1cncn1)c1ccc(Cl)cc1Cl)c1cccnc1 (stereo not drawn) |
| 128 to 129 °C | CCOc1ccc(C(=O)c2csc(-c3ccc(OCC)c(OCC)c3)n2)cc1OCC |
| 93 to 94 °C | COC(=O)c1ccc2occ(-c3cccc(OC(F)(F)F)c3)c2c1 |
| 121 to 123 °C | COc1ccc(-n2c(Br)ccc2-c2ccc(S(N)(=O)=O)cc2)cc1 |
| 205 °C | Cn1cc(C=O)c(=O)c2cc(C(F)(F)F)ccc21 |
| 235 °C | N#Cc1ccc2c(c1)Nc1ccc(Cl)cc1S2 |
| 62 °C | CC1C(=O)N(Cc2ccccc2)C(=S)N1c1ccc(Oc2ccccc2)cc1 (stereo not drawn) |
| 64.2 to 64.7 °C | CS(=O)(=S)OCc1c(F)c(F)c(F)c(F)c1F (stereo not drawn) |
| 209 to 211 °C | COc1cc(C(C)C)c2oc3ccccc3c2c1C(=O)Nc1c(Cl)cncc1Cl |
| 167 to 170 °C | COc1ccc(C=O)c2cc(C)oc12 |
| 163 to 165 °C | COC(=O)c1ccc(NC(=O)NCCCl)cc1 |
| 174 to 177 °C | COCCOc1ccc(CCCOC(=O)NS(=O)(=O)c2ccccc2)c(Oc2ncc(C(F)(F)F)cc2Cl)c1 |
| 249 to 251 °C | CS(=O)(=O)Nc1cc2occ(C(N)=O)c(=O)c2cc1Oc1ccccc1F |
| 80 °C | COC(=O)CCc1cc2c(c(C(C)(C)C)c1)OC(=O)C2c1cc(C)ccc1C (stereo not drawn) |
| 132 to 133 °C | COc1c(Cl)ccc(-c2nc(C(=O)OCc3ccccc3)c(Cl)c(N)c2F)c1F |
| 185 °C | O=C(O)c1cnn2c1NC(c1ccccc1)CC2C(F)(F)F (stereo not drawn) |
| 75 to 77 °C | O=C(Cc1cncs1)c1ccc(Cl)cc1Cl |
| 129 °C | Cc1ccc(S(=O)(=O)Cc2ccc(C(O)(C(F)(F)F)C(F)(F)F)cc2)cc1 |
| 221 to 222 °C | O=[N+]([O-])c1ccc(-c2ccc([N+](=O)[O-])c(Cl)c2)cc1Cl |
| 106 to 108 °C | Cc1nc(-c2cc3cc(OCCNC[C@H](O)COc4ccccc4Cl)ccc3o2)no1 |

| melting point | SMILES |
| --- | --- |
| 223 to 225 °C | CC(=O)C1=C(O)C(=C(C)Nc2ccc(O)cc2)C(=O)OC1=O |
| 97 to 98 °C | CN(Cc1cc2c3c(c1)c(=O)c(C(=O)NCc1ccc(Cl)cc1)cn3CC(=O)N2C)C[C@@H](O)c1cnccn1 |
| 218 to 220 °C | COc1ccc(C(=O)NNC(=O)N(C)C)cc1 |
| 210 to 211 °C | O=CC(=Cc1ccccc1OCc1ccc(Br)cc1)C(C=O)=Cc1ccccc1OCc1ccc(Br)cc1 |
| 67 °C | CN1CCC(OC2c3cccc(CCc4ccccc4)c3CCn3cc(-c4ccccc4)nc32)CC1 (stereo not drawn) |
| 204 °C | CCOC(=O)C1=C(COCCNC(N)=S)NC(C)=C(C(=O)OC)C1c1ccccc1Cl (stereo not drawn) |
| 119 to 120 °C | CCCC12CCC3=C(CCc4cc(OC)ccc43)C1CCC21OCCO1 (stereo not drawn) |
| > 240 °C | Cc1c(C=O)c2cc(Cl)ccc2n1-c1ccc(O)cc1 |
| 129 to 130 °C | CCOc1cc2c(cc1O)C(=O)CC(C)(C)O2 |
| 179 °C | O=c1oc(C(Cl)Cl)nc2c(C(F)(F)F)cccc12 |
| 81 to 85 °C | CCOC1=NC(OC)=NS(=O)(=O)N1C(C)C |
| 90 to 92 °C | Cc1cc(O)c(C=O)c(C)c1Cl |
| 237 to 240 °C | COc1ccccc1-n1c(=O)[nH]c2c(C(N)=O)nc(-c3ccccc3C(F)(F)F)nc21 |
| 206 to 207 °C | O=C(Nc1cccnc1)N1CCN(c2nccc(-c3ccc(F)cc3F)n2)CC1 |
| 149 to 150 °C | CCOC(=O)N1CCN(c2nc(N(C(C)=O)C3CC3)ccc2N)CC1 |
| 191 to 193 °C | O=S(=O)(Cc1n[nH]c(-c2cccs2)n1)c1ccccc1 |
| 132 to 135 °C | OCCC1(CCO)c2ccccc2Sc2ccccc21 |
| 192 to 194 °C | CSC(=O)N(C)c1nnc(-c2cccnc2)s1 |
| 163 to 172 °C | CCOCn1c(-c2ccc(Cl)cc2)c(C(N)=O)c(Br)c1C(F)(F)F |
| 106 to 109 °C | N#CCCSCc1nccc(N)n1 |
